The target in the assay is T1, Peroxisome proliferator-activated receptor gamma (Homo sapiens, UniProt P37231).
T1 sequence (P37231 whole entry): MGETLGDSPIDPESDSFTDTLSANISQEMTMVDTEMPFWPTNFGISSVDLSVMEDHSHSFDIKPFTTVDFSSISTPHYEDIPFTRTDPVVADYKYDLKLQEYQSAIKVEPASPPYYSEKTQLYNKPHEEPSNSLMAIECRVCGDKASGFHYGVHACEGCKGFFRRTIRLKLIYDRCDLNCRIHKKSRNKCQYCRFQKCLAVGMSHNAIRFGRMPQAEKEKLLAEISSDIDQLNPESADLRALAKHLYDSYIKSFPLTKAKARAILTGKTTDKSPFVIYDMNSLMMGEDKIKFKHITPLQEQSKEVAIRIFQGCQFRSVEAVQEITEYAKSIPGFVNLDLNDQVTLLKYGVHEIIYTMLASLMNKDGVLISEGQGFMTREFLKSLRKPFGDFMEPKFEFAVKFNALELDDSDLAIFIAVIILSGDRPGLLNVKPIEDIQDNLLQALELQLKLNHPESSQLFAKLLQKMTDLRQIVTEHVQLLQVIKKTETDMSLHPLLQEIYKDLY
Description: Antagonist activity at PPARgamma (unknown origin) expressed in human LNCaP cells assessed as suppression of pioglitazone-induced PPAR response element driven firefly luciferase activity measured after 24 hrs by dual luciferase reporter assay. Type of assay: cell-based. In general terms: In a reporter assay the amount or activity of a reporter protein is the signal.
A word on the IC50: it is the point on the concentration scale where inhibition reaches its midpoint. In the case of `O=C(O)c1ccccc1-c1ccccc1C(=O)Nc1ccc2c(c1)-c1ccccc1C2`, the IC50 came out at 3500 nM.
In the case of `COc1cc(OC)c2c(=O)cc(-c3cccnc3)oc2c1` it was 1100 nM; in that of `O=C1C=C(Nc2ccccc2C(=O)CC(=O)C(=O)Nc2ccc(Cl)c(Cl)c2)c2ccccc2C1=O`, 2800 nM.
Take `CCN(CC)c1ccc(CN(CC(=O)c2ccc(Cl)c(Cl)c2)Cc2ccccc2)cc1`: the IC50 was found to be 4500 nM.
For `COc1ccc(O)c(/C=N/c2ccccc2NS(=O)(=O)c2ccc(C)cc2)c1`, the IC50 worked out at 2300 nM.
To `O=C(CNC(=O)Nc1ccc(NC(=O)NCC(=O)Nc2ccc(C3=NCCN3)cc2)cc1)Nc1ccc(C2=NCCN2)cc1` belongs 1600 nM; to `O=C(OCc1cccc2ccc3cccc(COC(=O)c4ccccc4)c3c12)c1ccccc1`, 5400 nM; to `CC(=O)c1cc(C(C)=O)c(CC(=O)C(=O)Nc2cccc(C)c2C)cc1CC(=O)C(=O)Nc1cccc(C)c1C`, 2600 nM.
Consider `O=S(=O)(NCCSSCCNS(=O)(=O)c1cccc2cccnc12)c1cccc2cccnc12`, for which the IC50 was found to be 1500 nM.
`O=C(Nc1ccccc1C(=O)N/N=C/c1c(O)ccc2ccccc12)c1ccccc1Cl`: the IC50 is 1700 nM.
As to `COc1ccc(NC(=O)CC[C@H](NS(=O)(=O)c2ccc(C)cc2)C(=O)O)cc1`, the IC50 was 275000 nM.
For the compound `O=C(CCCOc1ccc(Cl)cc1Cl)N[C@@H](Cc1c[nH]c2ccccc12)C(=O)O`, the IC50 turned out to be 2400 nM.
To `CC(/C=N/Nc1ccc(S(=O)(=O)/N=C/C(C)=C/c2ccccc2)cc1)=C\c1ccccc1` belongs 2300 nM; to `O=C(CCCC(=O)N/N=C/c1cccc2ccccc12)N/N=C/c1ccc2ccccc2c1`, 2100 nM; to `COc1c(OC)c(O)c2c(=O)cc(-c3ccc(O)cc3)oc2c1OC` [XANTHOMICROL], 5400 nM.

(Values after ChEMBL document CHEMBL4823312, “Virtual screening and biological evaluation of PPARγ antagonists as potential anti-prostate cancer agents” (Bioorg Med Chem, 2021).)
